Here are results for 27 compounds from patent US6989389B2, “Aryl ether substituted imidazoquinolines” (3M Innovative Properties Co., priority 2000, dated 2006).

Counter-ions that a name gives are not always drawn. Like-named read-outs stand apart in the source and are kept apart here.

Data set [1] deals with Peripheral blood mononuclear cells (PBMC). Kind of data set: Cytokine Induction in Human Cells (in vitro human blood cell system, IFN and TNF secreted into culture media). Type of data set: cell-based. Also on record: key to Lowest Effective Concentration (μM) Tumor Necrosis Factor / Lowest Effective Concentration (μM) Interferon: *: no induction was seen at any of the tested concentrations. The following applies: 18 to 24 hours, tested 30-0.014 μM; for minimal effective concentration: Homo sapiens, PBMC. In short, it runs like this: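 Human donor PBMC (2×10^6 cells/mL, RPMI complete) incubated 18–24 h at 37 °C, 5% CO2 with compound, 3-fold dilutions 30–0.014 μM, ≤1% DMSO. IFN-α measured by ELISA, TNF-α by ELISA or IGEN immunoassay in supernatants (pg/mL). Value is lowest concentration inducing each cytokine.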

The mark [2] stands for this setting: lowest concentration found to induce interferon (α), ELISA, read-out: Lowest Effective Concentration (μM) Interferon.
[3] abbreviates: lowest concentration found to induce tumor necrosis factor (α), ELISA or IGEN assay, read-out: Lowest Effective Concentration (μM) Tumor Necrosis Factor.
The mark [4] stands for this setting: lowest concentration found to induce tumor necrosis factor (α), ELISA or IGEN assay.
Setting [5] is: lowest concentration found to induce interferon (α), ELISA.

In turn, `Nc1nc2ccccc2c2c1ncn2CCOC/C=C/c1ccccc1` [Example 115, 1-(2-{[(2E)-3-Phenylprop-2-enyl]oxy}ethyl)-1H-imidazo[4,5-c]quinolin-4-amine] registered a melting point of 183.7 to 184.3 °C. Also, in data set [1] (setting [2]), the minimal effective concentration turned out to be 0.12 µM. For the same compound, the minimal effective concentration in data set [1] (setting [3]) amounted to 1.11 µM.
Take `C#CCOCCn1cnc2c(N)nc3ccccc3c21` [Example 1, 1-[2-(2-Propynyloxy)ethyl]-1H-imidazo[4,5-c]quinolin-4-amine]: the melting point is 225 to 227 °C. Also, in data set [1] (setting [2]), the minimal effective concentration is 0.12 µM. The minimal effective concentration in data set [1] (setting [3]) came out at 1.11 µM.
Turning to `Nc1nc2ccccc2c2c1nc(CCC1CCCC1)n2CCOc1ccccc1` [Example 138, 2-(2-Cyclopentylethyl)-1-(2-phenoxyethyl)-1H-imidazo[4,5-c]quinolin-4-amine], the melting point came out at 165 °C. For the same compound, the minimal effective concentration in data set [1] (setting [2]) amounted to 1.11 µM. Besides, the “Lowest Effective Concentration (μM) Tumor Necrosis Factor” value in data set [1] (setting [4]) is reported as “*”.
For `Nc1nc2ccccc2c2c1ncn2CCOCCCc1ccc(-n2cccc2)cc1` (as salt: trifluoroacetate) [Example 11, 1-(2-{3-[4-(1H-1-Pyrrolyl)phenyl]propoxy}ethyl)-1H-imidazo[4,5-c]quinolin-4-amine trifluoroacetate], the melting point fell in the range of 179 to 181 °C.
The compound `COCCc1nc2c(N)nc3ccccc3c2n1CCOCC#Cc1ccccc1` [Example 120, 2-(Methoxyethyl)-1-{2-[(3-phenylprop-2-ynyl)oxy]ethyl}-1H-imidazo[4,5-c]quinolin-4-amine] displayed a melting point of 134.5 to 135.5 °C. The minimal effective concentration in data set [1] (setting [2]) was found to be 0.01 µM. Further, the minimal effective concentration in data set [1] (setting [3]) turned out to be 0.01 µM.
Compound `Cc1nc2c(N)nc3ccccc3c2n1CCCCOCCCc1ccccc1` [Example 150, 2-Methyl-1 [4-(3-phenylpropoxy)butyl]-1H-imidazo[4,5-c]quinolin-4-amine] gave a melting point of 105.1 to 106 °C. For the same compound, the minimal effective concentration in data set [1] (setting [2]) stood at 0.37 µM. For the same compound, the minimal effective concentration in data set [1] (setting [3]) was found to be 1.11 µM.
The compound `CNS(=O)(=O)c1ccc(C)c(CCCOCCn2cnc3c(N)nc4ccccc4c32)c1` [Example 6, N^1,4-Dimethyl-3-{3-[2-(4-amino-1H-imidazo[4,5-c]quinolin-1-yl)ethoxy]propyl}-1-benzensulfonamide] came in with a melting point of 207 to 209 °C. In data set [1] (setting [2]), the minimal effective concentration was found to be 0.12 µM. Further, in data set [1] (setting [4]), the “Lowest Effective Concentration (μM) Tumor Necrosis Factor” value was “*”.
In the same order, the values of `Cc1ccc(C#CCOCCn2cnc3c(N)nc4ccccc4c32)cc1C` [Example 23, 1-(2-{[3-(3,4-Dimethylphenyl)-2-propynyl]oxy}ethyl]-1H-imidazo[4,5-c]quinolin-4-amine] are 214 to 216 °C, 1.11 µM and “*”.
The compound `CC(C)c1ccccc1C#CCOCCn1cnc2c(N)nc3ccccc3c21` (as salt: hydrochloride) [Example 7, 1-(2-{[3-(2-Isopropylphenyl)-2-propynyl]oxy}ethyl)-1H-imidazo[4,5-c]quinolin-4-amine Hydrochloride] had a melting point of 239 to 241 °C.
Turning to `CC(C)Cc1nc2c(N)nc3ccccc3c2n1CCOc1ccccc1` [Example 130, 2-Isobutyl-1-(2-phenoxyethyl)-1H-imidazo[4,5-c]quinolin-4-amine], the melting point was 176.6 to 177.8 °C. The minimal effective concentration in data set [1] (setting [2]) came to 3.33 µM. For the same compound, the minimal effective concentration in data set [1] (setting [3]) was found to be 3.33 µM.
`Cc1nc2c(N)nc3ccccc3c2n1CCCCOCC#Cc1ccccc1` [Example 149, 2-Methyl-1-{4-[(3-phenylprop-2-ynyl)oxy]butyl}-1H-imidazo[4,5-c]quinolin-4-amine] displayed a melting point of 109.2 to 110 °C. Further, the minimal effective concentration in data set [1] (setting [2]) was determined as 0.041 µM. The minimal effective concentration in data set [1] (setting [3]) stood at 0.37 µM.
In the same order, the values of `CCCCc1nc2c(N)nc3ccccc3c2n1CCOc1ccccc1` [Example 132, 2-Butyl-1-(2-phenoxyethyl)-1H-imidazo[4,5-c]quinolin-4-amine] are 168.3 to 169.5 °C, 0.01 µM and 3.33 µM.
`Nc1nc2ccccc2c2c1nc(-c1ccccc1)n2CCOc1ccccc1` [Example 140, 1-(2-Phenoxyethyl)-2-phenyl-1H-imidazo[4,5-c]quinolin-4-amine] returned a melting point of 182.5 to 184.6 °C. For the same compound, the “Lowest Effective Concentration (μM) Interferon” value in data set [1] (setting [5]) is recorded as “*”. The “Lowest Effective Concentration (μM) Tumor Necrosis Factor” value in data set [1] (setting [4]) is “*”.
As to `N#Cc1ccccc1C#CCOCCn1cnc2c(N)nc3ccccc3c21` [Example 2, 2-{3-[2-(4-Amino-1H-imidazo[4,5-c]quinolin-1-yl)ethoxy]-1-propynyl}benzonitrile], the melting point lay in the range of 180 to 183 °C. For the same compound, the minimal effective concentration in data set [1] (setting [2]) was 1.11 µM. In data set [1] (setting [4]), the “Lowest Effective Concentration (μM) Tumor Necrosis Factor” value is “*”.
`CCCCCCCCc1nc2c(N)nc3ccccc3c2n1CCOCC#Cc1ccccc1` [Example 116, 2-Octyl-1-{2-[(3-phenylprop-2-ynyl)oxy]ethyl}-1H-imidazo[4,5-c]quinolin-4-amine]: the melting point lay within 138 to 138.7 °C. Also, the “Lowest Effective Concentration (μM) Interferon” value in data set [1] (setting [5]) is on record as “*”. Moreover, the “Lowest Effective Concentration (μM) Tumor Necrosis Factor” value in data set [1] (setting [4]) is “*”.
As to `CN(C)c1ccc(CCCOCCn2cnc3c(N)nc4ccccc4c32)cc1` (as salt: trifluoroacetate) [Example 114, 1-(2-{3-[4-(Dimethylamino)phenyl]propoxy}ethyl)-1H-imidazo[4,5-c]quinolin-4-amine], the melting point was in the range of 137 to 140 °C.
Take `Nc1nc2ccccc2c2c1nc(COc1ccccc1)n2CCOc1ccccc1` [Example 133, 1-(2-Phenoxyethyl)-2-(phenoxymethyl)-1H-imidazo[4,5-c]quinolin-4-amine]: the melting point was 168.5 to 170 °C. In addition, in data set [1] (setting [2]), the minimal effective concentration turned out to be 3.33 µM. Also, in data set [1] (setting [4]), the “Lowest Effective Concentration (μM) Tumor Necrosis Factor” value is listed as “*”.
On to `Cc1nc2c(N)nc3ccccc3c2n1CCCOCC#Cc1ccccc1` [Example 147, 2-Methyl-1-{3-[(3-phenylprop-2-ynyl)oxy]propyl}-H-imidazo[4,5-c]quinolin-4-amine], for which the melting point was in the range of 160 to 161.6 °C. In data set [1] (setting [2]), the minimal effective concentration worked out at 0.37 µM. In addition, in data set [1] (setting [3]), the minimal effective concentration was found to be 0.37 µM.
Compound `CCOCc1nc2c(N)nc3ccccc3c2n1CCOCCCc1ccccc1` (as salt: hydrochloride) [Example 16, 2-(Ethoxymethyl)-1-[2-(3-phenylpropoxy)ethyl]-1H-imidazo[4,5-c]quinolin-4-amine Hydrochloride] came in with a melting point of 128 to 134 °C.
Compound `CC(C)c1nc2c(N)nc3ccccc3c2n1CCOc1ccccc1` [Example 131, 2-Isopropyl-1-(2-phenoxyethyl)-1H-imidazo[4,5-c]quinolin-4-amine] showed a melting point of 229 to 231 °C. Also, the minimal effective concentration in data set [1] (setting [3]) came to 10 µM. Besides, the “Lowest Effective Concentration (μM) Interferon” value in data set [1] (setting [5]) is “*”.
`Nc1nc2ccccc2c2c1ncn2COCc1ccccc1` [Example 113, 1-[(Benzyloxy)methyl]-1H-imidazo[4,5-c]quinolin-4-amine]: the melting point is 168 to 172 °C. In addition, in data set [1] (setting [2]), the minimal effective concentration is 1.11 µM. Besides, the “Lowest Effective Concentration (μM) Tumor Necrosis Factor” value in data set [1] (setting [4]) is reported as “*”.
In turn, `COCCc1nc2c(N)nc3ccccc3c2n1CCOCCCc1ccccc1` [Example 121, 2-(2-Methoxyethyl)-1-[2-(3-phenylpropoxy)ethyl]-1H-imidazo[4,5-c]quinolin-4-amine] gave a melting point of 103.8 to 104.5 °C. Also, the minimal effective concentration in data set [1] (setting [2]) came out at 0.01 µM. The minimal effective concentration in data set [1] (setting [3]) turned out to be 0.04 µM.
In the same order, the values of `CCCCc1nc2c(N)nc3ccccc3c2n1CCOCCCc1ccccc1` [Example 124, 2-Butyl-1-[2-(3-phenylpropoxy)ethyl]-1H-imidazo[4,5-c]quinolin-4-amine] are 80.8 to 81.3 °C, 1.11 µM and 10 µM.
The compound `COc1ccc(CCCOCCn2cnc3c(N)nc4ccccc4c32)cc1` [Example 5, 1-{2-[3-(4-Methoxyphenyl)propoxy]ethyl}-1H-imidazo[4,5-c]quinolin-4-amine] yielded a melting point of 116 to 118 °C. Also, the minimal effective concentration in data set [1] (setting [2]) is 0.12 µM. Also, the minimal effective concentration in data set [1] (setting [3]) turned out to be 1.11 µM.
With `Nc1nc2ccccc2c2c1ncn2CCOCCCc1ccccc1C(=O)O` (as salt: trifluoroacetate) [Example 13, 2-{3-[2-(4-Amino-1H-imidazo[4,5-c]quinolin-1-yl)ethoxy]propyl}benzoic acid trifluoroacetate], the melting point was 186 to 188 °C.
Same read-out and setting: the result for `Nc1nc2ccccc2c2c1nc(CC1CC1)n2CCOc1ccccc1` [Example 137, 2-(Cyclopropylmethyl)-1-(2-phenoxyethyl)-1H-imidazo[4,5-c]quinolin-4-amine] reads 191.7 to 192.6 °C; that for `Nc1nc2ccccc2c2c1ncn2CCOCCCc1ccc(C(=O)O)cc1` (as salt: trifluoroacetate) [Example 14, 4-{3-[2-(4-Amino-1H-imidazo[4,5-c]quinolin-1-yl)ethoxy]propyl}benzoic acid trifluoroacetate], 235 to 237 °C.
